In patent US8461328B2, “Tricyclic heterocyclic compounds, compositions and methods of use thereof” (Genentech, Inc., priority 2010, dated 2013) one finds Ki data, which are given here for 25 molecules.

Common to all, as to assay type: biochemical
Assay [1] deals with T1, JAK1 (Homo sapiens, UniProt P23458).
T1 construct: made in house; host or cells: SF9 insect cells (baculovirus)
The assay is described as follows: JAK1 inhibition (Table 4). The following applies: read-out: JAK1 Ki.

In assay [2] the target is T2, JAK2 (Homo sapiens, UniProt O60674).
T2 construct: made in house; host or cells: SF9 insect cells (baculovirus)
The assay is described as follows: JAK2 inhibition (Table 4). As to conditions: read-out: JAK2 Ki.

Assay [3] concerns the target T3, JAK3 (Homo sapiens, UniProt P52333).
T3 construct: made in house; host or cells: SF9 insect cells (baculovirus)
The experiment in a line: JAK3 inhibition (Table 4). The following applies: read-out: JAK3 Ki.

Assay [4] addresses T4, TYK2 (Homo sapiens, UniProt P29597).
T4 construct: made in house; host or cells: SF9 insect cells (baculovirus)
T4 sequence (P29597 873-1187): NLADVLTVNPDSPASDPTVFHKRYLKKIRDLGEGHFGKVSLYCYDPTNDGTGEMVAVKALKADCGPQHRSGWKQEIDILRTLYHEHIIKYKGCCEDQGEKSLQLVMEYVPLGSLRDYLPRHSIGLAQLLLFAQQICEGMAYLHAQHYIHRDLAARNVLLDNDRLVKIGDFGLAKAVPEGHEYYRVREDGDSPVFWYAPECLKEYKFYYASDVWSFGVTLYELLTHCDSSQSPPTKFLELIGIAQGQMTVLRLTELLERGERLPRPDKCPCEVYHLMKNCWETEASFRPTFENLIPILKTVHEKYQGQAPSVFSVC
The experiment in a line: TYK2 inhibition (Table 4).

T3 sequence (P52333 783-1124): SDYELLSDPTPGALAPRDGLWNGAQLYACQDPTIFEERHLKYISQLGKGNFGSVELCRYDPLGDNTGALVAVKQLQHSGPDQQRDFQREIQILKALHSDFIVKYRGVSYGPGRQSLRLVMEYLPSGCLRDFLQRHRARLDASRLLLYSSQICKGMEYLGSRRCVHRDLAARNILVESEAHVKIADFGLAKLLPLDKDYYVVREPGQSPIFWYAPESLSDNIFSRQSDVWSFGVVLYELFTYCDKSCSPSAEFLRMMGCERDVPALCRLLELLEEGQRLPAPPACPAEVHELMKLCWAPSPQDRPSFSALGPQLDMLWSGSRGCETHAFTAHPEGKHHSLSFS
T1 sequence (P23458 852-1154): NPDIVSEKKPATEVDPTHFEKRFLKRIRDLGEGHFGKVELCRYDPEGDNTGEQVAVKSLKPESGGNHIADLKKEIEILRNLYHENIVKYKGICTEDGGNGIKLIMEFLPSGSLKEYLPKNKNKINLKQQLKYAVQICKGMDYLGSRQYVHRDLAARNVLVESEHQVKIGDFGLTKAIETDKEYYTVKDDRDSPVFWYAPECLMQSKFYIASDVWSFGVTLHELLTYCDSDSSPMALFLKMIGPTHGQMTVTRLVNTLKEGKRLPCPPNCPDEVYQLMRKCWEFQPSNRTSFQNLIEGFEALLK
T2 sequence (O60674 812-1132): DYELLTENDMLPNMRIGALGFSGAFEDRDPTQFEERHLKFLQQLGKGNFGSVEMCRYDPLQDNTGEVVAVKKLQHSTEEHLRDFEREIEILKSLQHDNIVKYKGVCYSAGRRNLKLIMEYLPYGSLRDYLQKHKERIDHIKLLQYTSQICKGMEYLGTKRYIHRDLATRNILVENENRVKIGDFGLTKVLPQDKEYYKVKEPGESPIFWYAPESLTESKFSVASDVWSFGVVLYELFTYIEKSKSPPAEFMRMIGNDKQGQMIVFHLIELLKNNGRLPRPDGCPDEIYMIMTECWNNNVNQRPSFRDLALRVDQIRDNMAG

In the case of `CC(C)C(=O)N1CC(c2nc3cnc4[nH]ccc4c3n2C2CCN(CCC#N)CC2)C1` [Example 389, 3-{4-[2-(1-Isobutyryl-azetidin-3-yl)-6H-1,3,5,6-tetraaza-as-indacen-1-yl]-piperidin-1-yl}-propionitrile], the Ki (in general, a dissociation constant, usually derived from enzyme kinetics or from competition with a known ligand) in assay [1] is 11.1 nM; in assay [2], 34.3 nM; in assay [3] it was 48.3 nM; in assay [4] it was 181 nM.

On to `Cc1nccn1Cc1nc2cnc3[nH]ccc3c2n1C1CCN(CCC#N)CC1` [Example 402, 3-{4-[2-(2-Methyl-imidazol-1-ylmethyl)-6H-1,3,5,6-tetraaza-as-indacen-1-yl]-piperidin-1-yl}-propionitrile], for which the Ki is 5.4 nM in assay [1], 8.8 nM in assay [2], 66.8 nM in assay [3] and 35.7 nM in assay [4].

Take `N#CCCN1CCC(n2c(Cc3cccnc3)nc3cnc4[nH]ccc4c32)CC1` [Example 403, 3-[4-(2-Pyridin-3-ylmethyl-6H-1,3,5,6-tetraaza-as-indacen-1-yl)-piperidin-1-yl]-propionitrile]: the Ki in assay [1] is 10.3 nM; in assay [2], 19.2 nM; in assay [3] it was 24.2 nM; in assay [4], 102 nM.

As for `N#CCCN1CCC(n2c(Cc3cccc(C#N)c3)nc3cnc4[nH]ccc4c32)CC1` [Example 405, 3-{1-[1-(2-Cyano-ethyl)-piperidin-4-yl]-1,6-dihydro-1,3,5,6-tetraaza-as-indacen-2-ylmethyl}-benzonitrile], the Ki came out at 30.6 nM in assay [1], 252 nM in assay [2], 524 nM in assay [3] and 445 nM in assay [4].

Regarding `N#CCCN1CCC(n2c(Cc3ccc(C(N)=O)cc3)nc3cnc4[nH]ccc4c32)CC1` [Example 406, 4-{1-[1-(2-Cyano-ethyl)-piperidin-4-yl]-1,6-dihydro-1,3,5,6-tetraaza-as-indacen-2-ylmethyl}-benzamide], the Ki is 67.8 nM in assay [1], 204 nM in assay [2], 614 nM in assay [3] and 648 nM in assay [4].

Regarding `CC(C)COCc1nc2cnc3[nH]ccc3c2n1C1CCN(CCC#N)CC1` [Example 407, 3-[4-(2-Isobutoxymethyl-6H-1,3,5,6-tetraaza-as-indacen-1-yl)-piperidin-1-yl]-propionitrile], the Ki in assay [1] was found to be 81.2 nM; in assay [2] it was 122 nM; in assay [3], 170 nM; in assay [4] it was 607 nM.

For `N#CCCN1CCC(n2c(CCC3CC3)nc3cnc4[nH]ccc4c32)CC1` [Example 408, 3-{4-[2-(2-Cyclopropyl-ethyl)-6H-1,3,5,6-tetraaza-as-indacen-1-yl]-piperidin-1-yl}-propionitrile], the Ki in assay [1] came out at 15.8 nM; in assay [2] it was 43.5 nM; in assay [3], 52.4 nM; in assay [4] it was 255 nM.

Regarding `Cc1ccnn1CCc1nc2cnc3[nH]ccc3c2n1C1CCN(CCC#N)CC1` [Example 410, 3-(4-{2-[2-(5-Methyl-pyrazol-1-yl)-ethyl]-6H-1,3,5,6-tetraaza-as-indacen-1-yl}-piperidin-1-yl)-propionitrile], the Ki in assay [1] was 24.9 nM; in assay [2] it was 81.6 nM; in assay [3], 244 nM; in assay [4] it was 315 nM.

On to `Cn1cc(CCc2nc3cnc4[nH]ccc4c3n2C2CCN(CCC#N)CC2)cn1` [Example 412, 3-(4-{2-[2-(1-Methyl-1H-pyrazol-4-yl)-ethyl]-6H-1,3,5,6-tetraaza-as-indacen-1-yl}-piperidin-1-yl)-propionitrile], for which the Ki in assay [1] amounted to 21.6 nM; in assay [2] it was 78.7 nM; in assay [3], 125 nM; in assay [4] it was 545 nM.

As for `Cc1cnn(CCc2nc3cnc4[nH]ccc4c3n2C2CCN(CCC#N)CC2)c1` [Example 413, 3-(4-{2-[2-(4-Methyl-pyrazol-1-yl)-ethyl]-6H-1,3,5,6-tetraaza-as-indacen-1-yl}-piperidin-1-yl)-propionitrile], the Ki in assay [1] came out at 21.1 nM; in assay [2], 59.8 nM; in assay [3], 224 nM; in assay [4], 181 nM.

`N#CCCN1CCC(n2c(CCn3cccn3)nc3cnc4[nH]ccc4c32)CC1` [Example 414, 3-{4-[2-(2-Pyrazol-1-yl-ethyl)-6H-1,3,5,6-tetraaza-as-indacen-1-yl]-piperidin-1-yl}-propionitrile]: the Ki was 17.6 nM in assay [1], 55.7 nM in assay [2], 155 nM in assay [3] and 137 nM in assay [4].

With `Cc1nc2cnc3[nH]ccc3c2n1[C@H]1CC[C@@H](C(=O)O)CC1` [Example 420, 4-(2-Methyl-6H-1,3,5,6-tetraaza-as-indacen-1-yl)-cyclohexanecarboxylic acid], the Ki in assay [1] stood at 66.2 nM; in assay [2], 80.6 nM; in assay [3], 39.1 nM; in assay [4], 28.6 nM.

As to `Cc1nc2cnc3[nH]ccc3c2n1[C@H](C)CO` [Example 421, (R)-2-(2-Methyl-6H-1,3,5,6-tetraaza-as-indacen-1-yl)-propan-1-ol], the Ki in assay [1] was 251 nM; in assay [2] it was 747 nM; in assay [3], 433 nM; in assay [4], 2340 nM.

Take `Cc1nc2cnc3[nH]ccc3c2n1[C@@H](C)CO` [Example 422, (S)-2-(2-Methyl-6H-1,3,5,6-tetraaza-as-indacen-1-yl)-propan-1-ol]: the Ki in assay [1] was 141 nM; in assay [2] it was 378 nM; in assay [3] it was 310 nM; in assay [4], 1230 nM.

Turning to `CCCC1(n2c(C)nc3cnc4[nH]ccc4c32)CC1` [Example 423, 2-Methyl-1-(1-propyl-cyclopropyl)-1,6-dihydro-1,3,5,6-tetraaza-as-indacene], the Ki in assay [1] stood at 9.88 nM; in assay [2], 14.1 nM; in assay [3], 9.67 nM; in assay [4], 112 nM.

Turning to `COC[C@H](C)n1c(C)nc2cnc3[nH]ccc3c21` [Example 424, 1-((S)-2-Methoxy-1-methyl-ethyl)-2-methyl-1,6-dihydro-1,3,5,6-tetraaza-as-indacene], the Ki in assay [1] worked out at 46.3 nM; in assay [2], 63.3 nM; in assay [3] it was 32.9 nM; in assay [4], 317 nM.

`Cc1nc2cnc3[nH]ccc3c2n1C1CC1` [Example 425, 1-Cyclopropyl-2-methyl-1,6-dihydro-1,3,5,6-tetraaza-as-indacene]: the Ki in assay [1] stood at 83.4 nM; in assay [2], 97.8 nM; in assay [3] it was 177 nM; in assay [4], 399 nM.

Take `O=C(Cc1ccccc1)N1CC[C@@H](n2cnc3cnc4[nH]ccc4c32)C1` [Example 430, 2-Phenyl-1-[(R)-3-(6H-1,3,5,6-tetraaza-as-indacen-1-yl)-pyrrolidin-1-yl]-ethanone]: the Ki in assay [1] worked out at 58.9 nM; in assay [2], 162 nM; in assay [3] it was 1240 nM; in assay [4], 507 nM.

On to `N#Cc1ccc(CC(=O)N2CC[C@@H](n3cnc4cnc5[nH]ccc5c43)C2)cc1` [Example 431, 4-{2-Oxo-2-[(R)-3-(6H-1,3,5,6-tetraaza-as-indacen-1-yl)-pyrrolidin-1-yl]-ethyl}-benzonitrile], for which the Ki was found to be 37.1 nM in assay [1], 175 nM in assay [2], 3520 nM in assay [3] and 1150 nM in assay [4].

For `O=S(=O)(c1ccccc1)N1CC[C@@H](n2cnc3cnc4[nH]ccc4c32)C1` [Example 432, 1-((R)-1-Benzenesulfonyl-pyrrolidin-3-yl)-1,6-dihydro-1,3,5,6-tetraaza-as-indacene], the Ki in assay [1] came to 19.7 nM; in assay [2], 17.9 nM; in assay [3], 1280 nM; in assay [4] it was 73.2 nM.

Consider `N#Cc1cccc(S(=O)(=O)N2CC[C@@H](n3cnc4cnc5[nH]ccc5c43)C2)c1` [Example 434, 3-[(R)-3-(6H-1,3,5,6-Tetraaza-as-indacen-1-yl)-pyrrolidine-1-sulfonyl]-benzonitrile], for which the Ki turned out to be 5.67 nM in assay [1], 6.22 nM in assay [2], 1200 nM in assay [3] and 32.5 nM in assay [4].

Take `O=S(=O)(Cc1ccccc1)N1CC[C@@H](n2cnc3cnc4[nH]ccc4c32)C1` [Example 435, 1-((R)-1-Phenylmethanesulfonyl-pyrrolidin-3-yl)-1,6-dihydro-1,3,5,6-tetraaza-as-indacene]: the Ki in assay [1] came to 32.1 nM; in assay [2], 28.1 nM; in assay [3], 226 nM; in assay [4], 265 nM.

With `N#Cc1cccc(CN2CC[C@@H](n3cnc4cnc5[nH]ccc5c43)C2)c1` [Example 436, 3-[(R)-3-(6H-1,3,5,6-Tetraaza-as-indacen-1-yl)-pyrrolidin-1-ylmethyl]-benzonitrile], the Ki in assay [1] worked out at 8.9 nM; in assay [2], 12.5 nM; in assay [3], 210 nM; in assay [4] it was 97.7 nM.

Consider `O=C(CO)N1CCC(n2cnc3cnc4[nH]ccc4c32)CC1` [Example 437, 2-Hydroxy-1-[4-(6H-1,3,5,6-tetraaza-as-indacen-1-yl)-piperidin-1-yl]-ethanone], for which the Ki turned out to be 3.87 nM in assay [1], 11.2 nM in assay [2], 153 nM in assay [3] and 55.6 nM in assay [4].

In the case of `CN(C)CCC(=O)N1CCC(n2cnc3cnc4[nH]ccc4c32)CC1` [Example 439, 3-Dimethylamino-1-[4-(6H-1,3,5,6-tetraaza-as-indacen-1-yl)-piperidin-1-yl]-propan-1-one], the Ki in assay [1] was determined as 84.2 nM; in assay [2], 437 nM; in assay [3] it was 1110 nM; in assay [4] it was 1980 nM.
